The nature of data set [1]: physchem. The settings on record: pH 7.4 buffer.
Data set [2] can be described thus: physchem. The settings on record: octan-1-ol/water, pH 7.4, LogD7.4.

These results are taken from ChEMBL document CHEMBL3301361, “Experimental in vitro DMPK and physicochemical data on a set of publicly disclosed compounds”.

The structures appear in SMILES notation. In brackets after ≈: the same amount, converted by molar mass.

In the case of `Cn1cnc(-c2ccccc2)c1-c1nc2c(N)ncnc2s1`, in the data set “physchem [1]”, the solubility (thermodynamic) was determined as 162 µM (≈ 50 µg/mL). The logD in “physchem [2]” worked out at 2.69.
Taken in the same sequence, the figures for `COc1ccc(C(=O)N2CCC(C(=O)c3ccc(F)cc3)CC2)cc1` were 21.4 µM (≈ 7.31 µg/mL) and 2.92.
Taken in the same sequence, the figures for `O=C(c1ccc(F)cc1)C1CCN(C(=O)c2ccc(F)cc2)CC1` were 30.9 µM (≈ 10.2 µg/mL) and 2.9.
Taken in the same sequence, the figures for `Nc1ccc2cccc(Nc3ncccn3)c2n1` were 26.9 µM (≈ 6.38 µg/mL) and 2.7.
Molecule `CS(=O)(=O)c1cccc(Nc2nccc(Nc3cccc4[nH]ncc34)n2)c1` showed a solubility (thermodynamic) in the data set “physchem [1]” of 6.8 µM (≈ 2.59 µg/mL). Further, the logD in “physchem [2]” is 2.91.
Taken in the same sequence, the figures for `Clc1n[nH]c2cccc(Nc3ccnc(Nc4cc(N5CCOCC5)cc(N5CCOCC5)c4)n3)c12` were 5.1 µM (≈ 2.59 µg/mL) and 2.78.
Taken in the same sequence, the figures for `CS(=O)(=O)c1cccc(Nc2nccc(Nc3cccc4c3OCO4)n2)c1` were 5.9 µM (≈ 2.27 µg/mL) and 2.83.
In the same order, the values of `Clc1ccc(-c2nnc3cccc(Cl)n23)c(Cl)c1` are 52.5 µM (≈ 15.7 µg/mL) and 2.88.
`CCn1c(=O)ccc2cnc(Nc3ccc(OC)c(OC)c3)nc21` registered a solubility (thermodynamic) in “physchem [1]” of 1.6 µM (≈ 0.522 µg/mL). The same molecule showed a logD in “physchem [2]” of 2.7.
Taken in the same sequence, the figures for `Clc1cccc(Cl)c1-c1nnc2cccc(Cl)n12` were 115 µM (≈ 34.3 µg/mL) and 2.66.
Turning to `Cc1cc2c(C)cc(=O)oc2c2c1NCCC2`, the solubility (thermodynamic) in “physchem [1]” is 30.9 µM (≈ 7.08 µg/mL). In the data set “physchem [2]”, this molecule had a logD of 2.9.
In the same order, the values of `Cc1sc2ncnc(SCC(=O)N3CCCC3)c2c1C` are 100 µM (≈ 30.7 µg/mL) and 2.89.
In the same order, the values of `COc1ccc(C(=O)C2CCN(C(=O)c3ccc(F)cc3)CC2)cc1` are 204 µM (≈ 69.7 µg/mL) and 2.92.
In the same order, the values of `NCC(O)(c1ccc(Cl)cc1)c1ccc(Cl)cc1` are 759 µM (≈ 214 µg/mL) and 2.69.
`O=C(CCN1CCCCC1)Nc1ccc(-c2cccn3c(=O)cc(N4CCOCC4)nc23)c2sc3ccccc3c12` returned a solubility (thermodynamic) in the data set “physchem [1]” of 16.6 µM (≈ 9.42 µg/mL). Besides, in “physchem [2]”, the logD is 2.9.
Taken in the same sequence, the figures for `c1ccc(Nc2ccnc3ccccc23)cc1` were 324 µM (≈ 71.3 µg/mL) and 2.78.
In the data set “physchem [1]”, `Cc1sc(N)nc1-c1ccccc1` returned a solubility (thermodynamic) of 955 µM (≈ 182 µg/mL). This molecule also displayed a logD in “physchem [2]” of 2.75.
In the same order, the values of `O=C(c1ccc(Cl)cc1)C1CCN(C(=O)C2CC2)CC1` are 190 µM (≈ 55.6 µg/mL) and 2.72.
In turn, `O=C(NC1CCCCC1)C1CCCN(S(=O)(=O)c2cccs2)C1` (centres undefined) came in with a solubility (thermodynamic) in the data set “physchem [1]” of 4.2 µM (≈ 1.5 µg/mL). In addition, the logD in “physchem [2]” was found to be 2.93.
Taken in the same sequence, the figures for `CC(=O)Nc1cc(CN2C(=O)N(c3ccc(SC(F)(F)F)cc3)C(=O)C2(C)C)ccn1` were 13.2 µM (≈ 5.97 µg/mL) and 2.93.
In the same order, the values of `COCCN(c1ccnc(Nc2cc(N3CCOCC3)cc(N3CCOCC3)c2)n1)c1cc(CO)ccc1C` are 302 µM (≈ 161 µg/mL) and 2.8.
In the same order, the values of `Cc1c(-c2ccc3c(c2)OCO3)c(=O)n(C[C@H](N)c2ccccc2)c(=O)n1Cc1c(F)cccc1F` are 372 µM (≈ 183 µg/mL) and 2.67.
In the data set “physchem [1]”, `O=c1cc(N2CCOCC2)nc2c3ccccc3ccn12` showed a thermodynamic solubility of 44.7 µM (≈ 12.6 µg/mL). The logD in the data set “physchem [2]” worked out at 2.78.
In the same order, the values of `COc1cc(N2CCN(C(C)=O)CC2)ccc1Nc1ncc(C#N)c(-c2cnc3ccccn23)n1` are 0.9 µM (≈ 0.422 µg/mL) and 2.8.
In the case of `CC(=O)N1CCN(c2ccc(Nc3nccc(-c4cnc5ccccn45)n3)cc2)CC1`, in the data set “physchem [1]”, the solubility (thermodynamic) stood at 8.5 µM (≈ 3.51 µg/mL). Besides, in the data set “physchem [2]”, the logD worked out at 2.82.
In the same order, the values of `COc1cc(N2CCN(C(C)=O)CC2)ccc1Nc1ncc(C)c(-c2cnc3ccccn23)n1` are 5 µM (≈ 2.29 µg/mL) and 2.9.
In the same order, the values of `Nc1nc(N)c(C(=O)Nc2ccccn2)nc1Cl` are 4.5 µM (≈ 1.19 µg/mL) and 2.67.
Taken in the same sequence, the figures for `CN(C(=O)c1ccncc1)C1CCN(CCC(c2ccccc2)c2ccccc2)CC1` were 537 µM (≈ 222 µg/mL) and 2.8.
In “physchem [1]”, `CCOC(=O)c1ccc(COCC2CCN(c3ccc(C)nn3)CC2)cc1` displayed a thermodynamic solubility of 468 µM (≈ 173 µg/mL). The logD in “physchem [2]” was found to be 2.68.
Regarding `CCOC(=O)c1ccc(OCCC2CN(c3ccc(C)nn3)CCO2)cc1` (centres undefined), the solubility (thermodynamic) in the data set “physchem [1]” is 15.8 µM (≈ 5.87 µg/mL). Further, the logD in “physchem [2]” stood at 2.7.
Consider `Clc1ccc(CN(Cc2ccc(Cl)cc2)c2nnn[nH]2)cc1`, for which, in the data set “physchem [1]”, the thermodynamic solubility was 118 µM (≈ 39.3 µg/mL). This molecule also had a logD in the data set “physchem [2]” of 2.74.
In the same order, the values of `Cc1nc(S(C)(=O)=O)ccc1Nc1ncnc(OC2CCN(C(=O)OC(C)C)CC2)c1C` are 12.3 µM (≈ 5.7 µg/mL) and 2.8.
Turning to `CCN1C(=O)N(C)c2cnc(Nc3ccc(C(=O)NC4CCN(C)CC4)cc3OC)nc2N1C1CCCC1`, the solubility (thermodynamic) in “physchem [1]” stood at 603 µM (≈ 315 µg/mL). Moreover, the logD in “physchem [2]” turned out to be 2.75.
Taken in the same sequence, the figures for `COc1cc2c(Nc3ncc(CC(=O)Nc4cccc(F)c4)s3)ncnc2cc1OCCCN1CCC(CO)CC1` were 26.9 µM (≈ 15.6 µg/mL) and 2.89.
Regarding `CCc1[nH]nc(NC(=O)Cc2ncc(Oc3ccnc4cc(OC)c(OC)cc34)cc2OC)c1C`, the thermodynamic solubility in “physchem [1]” is 37.2 µM (≈ 17.8 µg/mL). In “physchem [2]”, the logD amounted to 2.79.
Taken in the same sequence, the figures for `O=C(Nc1ccc(N2CCOCC2)nc1)c1nnc(Nc2ccccc2)o1` were 1.9 µM (≈ 0.696 µg/mL) and 2.9.
Taken in the same sequence, the figures for `COc1cccc(Nc2nnc(C(=O)Nc3ccc(N4CCOCC4)nc3)o2)c1` were 4.6 µM (≈ 1.82 µg/mL) and 2.8.
Taken in the same sequence, the figures for `CC(C)(C(=O)Nc1nnc(C(=O)Nc2ccc(N3CCOCC3)cc2)o1)c1ccc(Cl)cc1` were 200 µM (≈ 93.8 µg/mL) and 2.96.
`CC(C)N1CCO[C@@H](CN2CCN(C(=O)Nc3ccc(Cl)c(Cl)c3)CC2)C1`: the thermodynamic solubility in “physchem [1]” was 1120 µM (≈ 466 µg/mL). This molecule gave a logD in “physchem [2]” of 2.77.
Taken in the same sequence, the figures for `CCCSc1nc2ccc(NC(=O)CCNC(N)=O)cc2s1` were 93.3 µM (≈ 31.6 µg/mL) and 2.9.
Consider `CC(C)Cn1c(=O)n(C)c(=O)c2c(C(=O)N3CC[C@@H](O)C3)c(Cc3ccccc3C(F)(F)F)sc21`, for which the thermodynamic solubility in the data set “physchem [1]” is 550 µM (≈ 280 µg/mL). The logD in the data set “physchem [2]” was 2.74.
In the same order, the values of `C[C@@H]1CN(C(=O)OC(C)(C)C)CCN1c1ncc(OCc2ccc(C#N)cc2)cn1` are 3.4 µM (≈ 1.39 µg/mL) and 2.89.
In the same order, the values of `Cc1cc(Nc2nc(NCc3cc(C)no3)ncc2Br)[nH]n1` are 61.7 µM (≈ 22.5 µg/mL) and 2.92.
Taken in the same sequence, the figures for `CCCOc1nc(N2CCC[C@@H](CC(=O)O)C2)ccc1C(=O)NC1CCCCC1` were 550 µM (≈ 222 µg/mL) and 2.81.
Regarding `COc1cc2c(NC(=O)Nc3c(Cl)cccc3Cl)ncnc2cc1OCC1CCN(C)CC1`, the thermodynamic solubility in “physchem [1]” was 10 µM (≈ 4.9 µg/mL). In the data set “physchem [2]”, this molecule had a logD of 2.7.
Taken in the same sequence, the figures for `CN1CCN(S(=O)(=O)c2ccc(-c3cnc(N)c(C(=O)Nc4cccnc4)n3)cc2F)CC1` were 2.7 µM (≈ 1.27 µg/mL) and 2.66.
Taken in the same sequence, the figures for `CS(=O)(=O)Cc1cc(N2CCOCC2)nc(-c2cccc3cc[nH]c23)n1` were 1.1 µM (≈ 0.41 µg/mL) and 2.8.
Taken in the same sequence, the figures for `O=C(COc1ccccc1)c1ccccc1` were 170 µM (≈ 36 µg/mL) and 2.87.
As for `C[C@@H](Oc1cccc2ncnc(Nc3ccc4c(cnn4Cc4ccccn4)c3)c12)C(=O)N1CCOCC1`, the thermodynamic solubility in “physchem [1]” is 95.5 µM (≈ 48.7 µg/mL). This molecule also returned a logD in “physchem [2]” of 2.82.
In the same order, the values of `NC1(Cc2ccc(Cl)cc2)CCN(c2ncnc3[nH]ccc23)CC1` are 339 µM (≈ 116 µg/mL) and 2.72.
`O=c1[nH]c2cc(Cl)ccc2c(O)c1-c1cccc(Oc2ccccc2)c1` returned a solubility (thermodynamic) in the data set “physchem [1]” of 2.5 µM (≈ 0.909 µg/mL). In “physchem [2]”, the logD was found to be 2.96.
Taken in the same sequence, the figures for `Cc1c(-c2ccccc2F)c(=O)n(C[C@H](N)c2ccccc2)c(=O)n1Cc1c(F)cccc1F` were 407 µM (≈ 190 µg/mL) and 2.76.
Taken in the same sequence, the figures for `O=C(O)c1c(Sc2ccccc2)c2cc(Cl)ccc2n1Cc1ccc(Cl)cc1` were 132 µM (≈ 56.5 µg/mL) and 2.96.
For `COc1cc2ncnc(Nc3cccc(Cl)c3F)c2cc1CN1CCC[C@H]1CC(N)=O`, the solubility (thermodynamic) in “physchem [1]” stood at 234 µM (≈ 104 µg/mL). Also, the logD in “physchem [2]” amounted to 2.64.
Taken in the same sequence, the figures for `COc1cc2c(Nc3cnc(NC(=O)c4ccccc4)nc3)ncnc2cc1OCCCN1CCOCC1` were 3.6 µM (≈ 1.86 µg/mL) and 2.7.
In the same order, the values of `CNC(=O)Nc1cc(-c2ccccc2)sc1C(N)=O` are 1.1 µM (≈ 0.303 µg/mL) and 2.71.
In the same order, the values of `C[C@@H](Oc1cccc2ncnc(Nc3ccc4c(cnn4Cc4ccccn4)c3)c12)C(=O)N(C)C` are 295 µM (≈ 138 µg/mL) and 2.89.
On to `Clc1cc(Nc2ncnc3[nH]nc(OCCN4CCCC4)c23)ccc1OCc1ccccn1`, for which the thermodynamic solubility in the data set “physchem [1]” was 12 µM (≈ 5.59 µg/mL). This molecule also had a pH-dependent lipophilicity (logD) in “physchem [2]” of 2.87.
In the same order, the values of `C[C@@H](Oc1cccc2ncnc(Nc3ccc4c(cnn4Cc4cscn4)c3)c12)C(=O)N1CCOCC1` are 151 µM (≈ 78.1 µg/mL) and 2.81.
Taken in the same sequence, the figures for `Cc1cnc(NC(=O)Cc2ccccc2)s1` were 17 µM (≈ 3.95 µg/mL) and 2.9.
In the data set “physchem [1]”, `COc1cc2ncc(C(N)=O)c(Nc3ccccc3F)c2cc1OC` registered a thermodynamic solubility of 21.9 µM (≈ 7.48 µg/mL). In addition, in “physchem [2]”, the logD was 2.81.
In the same order, the values of `Cn1cnc(-c2ccccc2)c1C#Cc1ccnc(N)n1` are 17 µM (≈ 4.68 µg/mL) and 2.94.
In the same order, the values of `COc1cc(Nc2cc(Oc3cccnc3)ccn2)cc(OC)c1OC` are 93.3 µM (≈ 33 µg/mL) and 2.66.
Taken in the same sequence, the figures for `O=C1NC(=O)C(Cc2cccc(Oc3ccccc3)c2)S1` (centres undefined) were 339 µM (≈ 101 µg/mL) and 2.84.
As for `O=c1[nH]nc(Cc2ccccc2)c2ccccc12`, the thermodynamic solubility in the data set “physchem [1]” worked out at 24.5 µM (≈ 5.79 µg/mL). Also, in “physchem [2]”, the log distribution coefficient (logD) worked out at 2.8.
Taken in the same sequence, the figures for `Cn1c(C#N)ccc1-c1ccc2c(c1)C(C)(C)OC(=O)N2` were 13.2 µM (≈ 3.71 µg/mL) and 2.85.
In the same order, the values of `Cc1ccccc1Nc1ncnc2ccccc12` are 417 µM (≈ 98.1 µg/mL) and 2.85.

Usually thermodynamic solubility stands for solubility found after equilibrating the solid with the medium. A word on the logD: it is the decadic logarithm of the distribution of all forms, ionised or not, between an organic phase and buffer at a given pH. Read a low logD as lower lipophilicity.
